# Molecular target: T1, human vasopressin V2 receptor subtype (Homo sapiens, UniProt P30518)
# T1 construct: host or cells: CHO cells, stably transfected (pZeoSV vector)
# Assay: Vasopressin binding in CHO cell membranes expressing human vasopressin V2 subtype receptors ([3H]arginine vasopressin radioligand binding)
# Conditions: 100 nM
# Procedure, shortened: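 Membranes from CHO cells stably expressing human V2 receptor (25 to 50 μg protein/well) incubated 60 min at room temperature with [3H]arginine vasopressin in Tris-HCl pH 7.4 buffer with MgCl2, BSA and protease inhibitors. Filtration, scintillation counting; percent inhibition at one concentration or IC50 (nM).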
# T1 sequence (P30518 whole entry): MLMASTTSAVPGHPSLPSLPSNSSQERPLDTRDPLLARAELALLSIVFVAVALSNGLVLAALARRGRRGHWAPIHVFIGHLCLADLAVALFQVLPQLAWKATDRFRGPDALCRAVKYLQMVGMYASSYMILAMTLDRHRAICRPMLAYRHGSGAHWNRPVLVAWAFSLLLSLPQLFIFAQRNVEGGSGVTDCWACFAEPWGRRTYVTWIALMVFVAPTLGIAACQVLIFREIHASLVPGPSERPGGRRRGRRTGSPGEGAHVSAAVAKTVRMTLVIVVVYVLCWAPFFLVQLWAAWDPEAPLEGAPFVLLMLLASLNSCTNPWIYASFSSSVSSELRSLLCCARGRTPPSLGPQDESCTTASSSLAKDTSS
row,Compound,inhibition at 0.1 µM [%]
1,"COc1cc(-c2ccccc2C)c(Cl)cc1C(=O)N1Cc2ccc(C(=O)N3CCN(c4ccccn4)CC3)n2Cc2ccccc21 [Example 81, {10-[(6-Chloro-3-methoxy-2′-methyl-[1,1′-biphenyl]-4-yl)carbonyl]-10,11-dihydro-5H-pyrrolo[2,1-c][1,4]benzodiazepin-3-yl}[4-(2-pyridinyl)-1-piperazinyl]methanone]",5
2,"COc1cccc(-c2cc(OC)c(C(=O)N3Cc4ccc(C(=O)N5CCN(c6ccccn6)CC5)n4Cc4ccccc43)cc2Cl)c1 [Example 82, {10-[(6-Chloro-3,3′-dimethoxy-[1,1′-biphenyl]-4-yl)carbonyl]-10,11-dihydro-5H-pyrrolo[2,1-c][1,4]benzodiazepin-3-yl}[4-(2-pyridinyl)-1-piperazinyl]methanone]",8
3,"COc1ccccc1-c1ccc(C(=O)N2Cc3ccc(C(=O)N4CCN(c5ccccn5)CC4)n3Cc3ccccc32)cc1OC [Example 84, {10-[(2,2′-Dimethoxy-[1,1′-biphenyl]-4-yl)carbonyl]-10,11-dihydro-5H-pyrrolo[2,1-c][1,4]benzodiazepin-3-yl}[4-(2-pyridinyl)-1-piperazinyl]methanone]",14
4,"COc1cccc(-c2ccc(C(=O)N3Cc4ccc(C(=O)N5CCN(c6ccccn6)CC5)n4Cc4ccccc43)cc2OC)c1 [Example 85, {10-[(2,3′-Dimethoxy-[1,1′-biphenyl]-4-yl)carbonyl]-10,11-dihydro-5H-pyrrolo[2,1-c][1,4]benzodiazepin-3-yl}[4-(2-pyridinyl)-1-piperazinyl]methanone]",5
5,"O=C(c1ccc2n1Cc1ccccc1N(C(=O)c1ccc(-c3cccc4ccccc34)cc1Cl)C2)N1CCN(c2ccccn2)CC1 [Example 86, {10-[2-Chloro-4-(naphthalen-1-yl)benzoyl]-10,11-dihydro-5H-pyrrolo[2,1-c][1,4]benzodiazepin-3-yl}[4-(2-pyridinyl)-1-piperazinyl]methanone]",11
6,"Cc1cc(C(=O)N2Cc3ccc(C(=O)N4CCN(c5ccccn5)CC4)n3Cc3ccccc32)ccc1-c1ccccc1C(F)(F)F [Example 87, (10-{[2-Methyl-2′-trifluoromethyl-[1,1′-biphenyl]-4-yl]carbonyl}-10,11-dihydro-5H-pyrrolo[2,1-c][1,4]benzodiazepin-3-yl)[4-(2-pyridinyl)-1-piperazinyl]methanone]",4
7,"COc1ccccc1-c1ccc(C(=O)N2Cc3ccc(C(=O)NCc4ccncc4)n3Cc3ccccc32)cc1C [Example 88, 10-[(2′-Methoxy-2-methyl-[1,1′-biphenyl]-4-yl)carbonyl]-N-(4-pyridinylmethyl)-10,11-dihydro-5H-pyrrolo[2,1-c][1,4]benzodiazepine-3-carboxamide]",13
8,"Cc1ccccc1-c1ccc(C(=O)N2Cc3ccc(C(=O)NCc4ccncc4)n3Cc3ccccc32)cc1C [Example 89, 10-[(2,2′-Dimethyl-[1,1′-biphenyl]-4-yl)carbonyl]-N-(4-pyridinylmethyl)-10,11-dihydro-5H-pyrrolo[2,1-c][1,4]benzodiazepine-3-carboxamide]",15
9,"COc1cccc(-c2ccc(C(=O)N3Cc4ccc(C(=O)NCc5ccncc5)n4Cc4ccccc43)cc2C)c1 [Example 90, 10-[(3′-Methoxy-2-methyl-[1,1′-biphenyl]-4-yl)carbonyl]-N-(4-pyridinylmethyl)-10,11-dihydro-5H-pyrrolo[2,1-c][1,4]benzodiazepine-3-carboxamide]",11
10,"COc1ccccc1-c1ccc(C(=O)N2Cc3ccc(C(=O)NCc4ccncc4)n3Cc3ccccc32)cc1 [Example 91, 10-[(2′-Methoxy-[1,1′-biphenyl]-4-yl)carbonyl]-N-(4-pyridinylmethyl)-10,11-dihydro-5H-pyrrolo[2,1-c][1,4]benzodiazepine-3-carboxamide]",10
11,"Cc1ccccc1-c1ccc(C(=O)N2Cc3ccc(C(=O)NCc4ccncc4)n3Cc3ccccc32)cc1 [Example 92, 10-[(2′-Methyl-[1,1′-biphenyl]-4-yl)carbonyl]-N-(4-pyridinylmethyl)-10,11-dihydro-5H-pyrrolo[2,1-c][1,4]benzodiazepine-3-carboxamide]",0
12,"COc1cc(C(=O)N2Cc3ccc(C(=O)NCc4ccncc4)n3Cc3ccccc32)ccc1-c1ccccc1C [Example 93, 10-[(2-Methoxy-2′-methyl-[1,1′-biphenyl]-4-yl)carbonyl]-N-(4-pyridinylmethyl)-10,11-dihydro-5H-pyrrolo[2,1-c][1,4]benzodiazepine-3-carboxamide]",27
13,"COc1cc(-c2ccccc2C)c(Cl)cc1C(=O)N1Cc2ccc(C(=O)NCc3ccncc3)n2Cc2ccccc21 [Example 94, 10-[(6-Chloro-3-methoxy-2′-methyl-[1,1′-biphenyl]-4-yl)carbonyl]-N-(4-pyridinylmethyl)-10,11-dihydro-5H-pyrrolo[2,1-c][1,4]benzodiazepine-3-carboxamide]",5
14,"COc1cccc(-c2cc(OC)c(C(=O)N3Cc4ccc(C(=O)NCc5ccncc5)n4Cc4ccccc43)cc2Cl)c1 [Example 95, 10-[(6-Chloro-3,3′-dimethoxy-[1,1′-biphenyl]-4-yl)carbonyl]-N-(4-pyridinylmethyl)-10,11-dihydro-5H-pyrrolo[2,1-c][1,4]benzodiazepine-3-carboxamide]",-1
15,"COc1cc(C(=O)N2Cc3ccc(C(=O)NCc4ccncc4)n3Cc3ccccc32)ccc1-c1cccc2ccccc12 [Example 96, 10-[3-Methoxy-4-(naphthalen-1-yl)benzoyl]-N-(4-pyridinylmethyl)-10,11-dihydro-5H-pyrrolo[2,1-c][1,4]benzodiazepine-3-carboxamide]",22
16,"COc1ccccc1-c1ccc(C(=O)N2Cc3ccc(C(=O)NCc4ccncc4)n3Cc3ccccc32)cc1OC [Example 97, 10-[(2,2′-Dimethoxy-[1,1′-biphenyl]-4-yl)carbonyl]-N-(4-pyridinylmethyl)-10,11-dihydro-5H-pyrrolo[2,1-c][1,4]benzodiazepine-3-carboxamide]",16
17,"O=C(NCc1ccncc1)c1ccc2n1Cc1ccccc1N(C(=O)c1ccc(-c3cccc4ccccc34)cc1Cl)C2 [Example 99, 10-[2-Chloro-4-(naphthalen-1-yl)benzoyl]-N-(4-pyridinylmethyl)-10,11-dihydro-5H-pyrrolo[2,1-c][1,4]benzodiazepine-3-carboxamide]",12
18,"Cc1cc(C(=O)N2Cc3ccc(C(=O)NCc4ccncc4)n3Cc3ccccc32)ccc1-c1ccccc1C(F)(F)F [Example 100, 10-{[2-Methyl-2′-trifluoromethyl-[1,1′-biphenyl]-4-yl]carbonyl}-N-(4-pyridinylmethyl)-10,11-dihydro-5H-pyrrolo[2,1-c][1,4]benzodiazepine-3-carboxamide]",0
19,"COc1ccccc1-c1ccc(C(=O)N2Cc3ccc(C(=O)N(C)Cc4cccnc4)n3Cc3ccccc32)cc1 [Example 104, 10-[(2′-Methoxy-[1,1′-biphenyl]-4-yl)carbonyl]-N-methyl-N-(3-pyridinylmethyl)-10,11-dihydro-5H-pyrrolo[2,1-c][1,4]benzodiazepine-3-carboxamide]",23
20,"Cc1ccccc1-c1ccc(C(=O)N2Cc3ccc(C(=O)N(C)Cc4cccnc4)n3Cc3ccccc32)cc1 [Example 105, N-Methyl-10-[(2′-methyl-[1,1′-biphenyl]-4-yl)carbonyl]-N-(3-pyridinylmethyl)-10,11-dihydro-5H-pyrrolo[2,1-c][1,4]benzodiazepine-3-carboxamide]",6

# Same assay, conditions: value in parentheses
row,Compound,IC50 [nM]
1,"COc1ccccc1-c1ccc(C(=O)N2Cc3ccc(C(=O)N(C)Cc4cccnc4)n3Cc3ccccc32)cc1C [Example 101, 10-[(2′-Methoxy-2-methyl-[1,1′-biphenyl]-4-yl)carbonyl]-N-methyl-N-(3-pyridinylmethyl)-10,11-dihydro-5H-pyrrolo[2,1-c][1,4]benzodiazepine-3-carboxamide]",270
2,"COc1cccc(-c2ccc(C(=O)N3Cc4ccc(C(=O)N(C)Cc5cccnc5)n4Cc4ccccc43)cc2C)c1 [Example 102, 10-[(3′-Methoxy-2-methyl-[1,1′-biphenyl]4-yl)carbonyl]-N-methyl-N-(3-pyridinyImethyl)-10,11-dihydro-5H-pyrrolo[2,1-c][1,4]benzodiazepine-3-carboxamide]",534
3,"COc1ccccc1-c1ccc(C(=O)N2Cc3ccc(C(=O)N(C)Cc4cccnc4)n3Cc3ccccc32)cc1OC [Example 103, 10-[(2,2′-Dimethoxy-[1,1′-biphenyl]-4-yl)carbonyl]-N-methyl-N-(3-pyridinylmethyl)-10,11-dihydro-5H-pyrrolo[2,1-c][1,4]benzodiazepine-3-carboxamide]",318
4,"Cc1cc(C(=O)N2Cc3ccc(C(=O)N(C)Cc4cccnc4)n3Cc3ccccc32)ccc1-c1ccccc1C(F)(F)F [Example 112, N-Methyl-10-{[2-methyl-2′-trifluoromethyl-[1,1′-biphenyl]-4-yl]carbonyl}-N-(3-pyridinylmethyl)-10,11-dihydro-5H-pyrrolo[2,1-c][1,4]benzodiazepine-3-carboxamide]",1130
5,"COc1ccccc1-c1ccc(C(=O)N2Cc3ccc(C(=O)N4CCN(c5ccncc5)CC4)n3Cc3ccccc32)cc1C [Example 113, {10-[(2′-Methoxy-2-methyl-[1,1′-biphenyl]-4-yl)carbonyl]-10,11-dihydro-5H-pyrrolo[2,1-c][1,4]benzodiazepin-3-yl}[4-(4-pyridinyl)-1-piperazinyl]methanone]",545

# Reference: US7064120B2, “Tricyclic pyridyl carboxamides and derivatives thereof tocolytic oxytocin receptor antagonists” (Wyeth, priority 2001, dated 2006)
